Earlier results, collected in patent US20160158308A1 (priority 2013, published 2016).
Where two headings read alike, the source gives them in different places.

Assays:
[1] = rat liver, CO-60, water control = 0% removal
[2] = test system: Mycobacterium tuberculosis; conditions: NAC at 10 millimolar

## N[C@@H](CCC(=O)N[C@@H](CS)C(=O)NCC(=O)O)C(=O)O [Plain glutathione, glutathione]
[1]
  removal of the toxin: 0%
[1]; listed as Intravenous glutathione
  removal of the toxin: 64%

## CC(=O)N[C@@H](CS)C(=O)O [NAC, N-acetyl cysteine]
[2]
  M. tuberculosis CFU/ml: 8,000 CFU/ml
